Assay results as given in ChEMBL document CHEMBL1909046, “DrugMatrix in vitro pharmacology data”.

What was measured:
[1] = DRUGMATRIX: Glutamate, Kainate radioligand binding (ligand: [3H] Kainic acid); format: cell membranes, Rattus norvegicus, Wistar, Brain, Membrane; conditions: Not Active = under 50% inhibition at 10 µM
[2] = DRUGMATRIX: Leukotriene, BLT (LTB4) radioligand binding (ligand: [3H]LTB4); format: cell membranes, Membrane; conditions: u-937; Not Active = under 50% inhibition at 10 µM
Leukotriene C4 synthase = molecular target: T1, Leukotriene C4 synthase (Cavia porcellus, UniProt A6XA80); experiment: biochemical; format: tissue-based, Lung;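 also: enzyme inhibition assay of leukotriene C4 synthase, using LTA4 as the substrate; in other assays of this panel Not Active means under 50% inhibition at 10 µM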
T1 sequence (A6XA80 whole entry): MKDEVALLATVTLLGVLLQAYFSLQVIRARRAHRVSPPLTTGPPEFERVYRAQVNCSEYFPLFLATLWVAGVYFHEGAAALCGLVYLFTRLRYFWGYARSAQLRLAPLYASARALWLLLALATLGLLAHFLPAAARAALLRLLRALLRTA

[3] = molecular target: T2, Muscarinic acetylcholine receptor M2 (Homo sapiens, UniProt P08172); format: cell membranes, CHO-K1, Membrane; conditions: cho-k1; also: in other assays of this panel Not Active means under 50% inhibition at 10 µM
T2 sequence (P08172 whole entry): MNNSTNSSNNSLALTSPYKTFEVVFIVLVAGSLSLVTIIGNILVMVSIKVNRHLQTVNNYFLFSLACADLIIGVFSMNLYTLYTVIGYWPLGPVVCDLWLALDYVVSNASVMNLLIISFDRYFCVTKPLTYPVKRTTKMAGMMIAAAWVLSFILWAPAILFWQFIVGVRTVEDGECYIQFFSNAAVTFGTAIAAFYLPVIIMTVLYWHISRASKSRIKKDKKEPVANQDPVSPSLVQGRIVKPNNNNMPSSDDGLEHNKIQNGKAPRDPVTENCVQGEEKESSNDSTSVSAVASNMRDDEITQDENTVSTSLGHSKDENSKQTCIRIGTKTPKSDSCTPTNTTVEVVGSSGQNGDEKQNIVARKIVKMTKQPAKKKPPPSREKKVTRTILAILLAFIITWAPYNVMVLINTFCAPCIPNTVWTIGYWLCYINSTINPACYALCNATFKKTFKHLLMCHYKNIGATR

[4] = molecular target: T3, Angiotensin-converting enzyme (Oryctolagus cuniculus, UniProt P12822); experiment: biochemical; format: tissue-based, Lung;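 also: enzymatic inhibition of angiotensin-converting enzyme measured with FAPGG as the substrate; in other assays of this panel Not Active means under 50% inhibition at 10 µM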
T3 sequence (P12822 whole entry): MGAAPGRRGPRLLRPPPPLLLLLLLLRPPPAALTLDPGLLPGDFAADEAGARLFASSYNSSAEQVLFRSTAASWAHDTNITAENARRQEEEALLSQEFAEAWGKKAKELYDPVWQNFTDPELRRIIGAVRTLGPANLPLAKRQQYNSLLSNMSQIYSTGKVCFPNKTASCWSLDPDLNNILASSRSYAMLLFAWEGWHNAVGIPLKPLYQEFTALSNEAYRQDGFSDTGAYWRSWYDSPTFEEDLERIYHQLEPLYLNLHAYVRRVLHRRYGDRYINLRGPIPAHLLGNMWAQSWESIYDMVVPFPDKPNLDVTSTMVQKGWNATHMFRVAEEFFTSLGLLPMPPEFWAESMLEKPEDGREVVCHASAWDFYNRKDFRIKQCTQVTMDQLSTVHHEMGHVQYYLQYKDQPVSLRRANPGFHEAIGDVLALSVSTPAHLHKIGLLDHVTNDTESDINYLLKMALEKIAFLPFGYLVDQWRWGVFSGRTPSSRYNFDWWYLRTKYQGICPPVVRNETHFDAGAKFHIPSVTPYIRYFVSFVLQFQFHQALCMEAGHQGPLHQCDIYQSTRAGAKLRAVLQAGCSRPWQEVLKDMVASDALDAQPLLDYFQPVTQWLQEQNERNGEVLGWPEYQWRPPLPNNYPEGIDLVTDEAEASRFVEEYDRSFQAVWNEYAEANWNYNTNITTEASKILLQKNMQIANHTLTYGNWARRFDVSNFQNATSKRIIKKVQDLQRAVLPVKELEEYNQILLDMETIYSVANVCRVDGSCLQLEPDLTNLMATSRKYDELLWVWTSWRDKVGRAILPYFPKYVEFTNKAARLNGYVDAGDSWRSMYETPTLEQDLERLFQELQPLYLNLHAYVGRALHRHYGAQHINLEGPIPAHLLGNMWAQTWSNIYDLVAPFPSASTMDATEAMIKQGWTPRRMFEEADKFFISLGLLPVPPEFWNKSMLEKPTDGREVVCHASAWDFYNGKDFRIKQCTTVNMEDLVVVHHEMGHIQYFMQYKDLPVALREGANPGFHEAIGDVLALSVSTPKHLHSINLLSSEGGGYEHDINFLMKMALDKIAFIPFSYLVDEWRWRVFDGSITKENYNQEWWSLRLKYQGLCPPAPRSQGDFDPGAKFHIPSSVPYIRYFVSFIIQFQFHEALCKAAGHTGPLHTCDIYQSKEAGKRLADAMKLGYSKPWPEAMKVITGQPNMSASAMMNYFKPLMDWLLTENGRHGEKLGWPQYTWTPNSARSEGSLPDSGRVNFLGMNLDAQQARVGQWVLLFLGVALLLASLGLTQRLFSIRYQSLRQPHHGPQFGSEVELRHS

[5] = molecular target: Mitogen-activated protein kinase 14 (Homo sapiens, UniProt Q16539); set-up: species or system Escherichia coli;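 also: inhibition of p38alpha enzyme activity in a biochemical kinase assay, with myelin basic protein serving as substrate; in other assays of this panel Not Active means under 50% inhibition at 10 µM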
Sequence of Mitogen-activated protein kinase 14 (Q16539 whole entry): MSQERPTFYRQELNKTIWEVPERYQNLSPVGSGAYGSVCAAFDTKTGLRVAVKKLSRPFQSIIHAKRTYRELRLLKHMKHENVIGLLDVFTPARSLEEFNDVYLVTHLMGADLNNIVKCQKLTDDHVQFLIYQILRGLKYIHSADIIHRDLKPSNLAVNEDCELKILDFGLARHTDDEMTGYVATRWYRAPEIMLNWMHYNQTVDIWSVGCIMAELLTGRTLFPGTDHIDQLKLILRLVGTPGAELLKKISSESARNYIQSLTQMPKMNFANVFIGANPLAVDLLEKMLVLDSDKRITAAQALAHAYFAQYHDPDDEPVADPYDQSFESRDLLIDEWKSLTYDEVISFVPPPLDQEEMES

Adenosine receptor A2a = Adenosine receptor A2a (Homo sapiens, UniProt P29274); experiment: DRUGMATRIX: Adenosine A2A radioligand binding (ligand: […]); format: cell membranes, HEK293, Membrane; conditions: hek293; Not Active = under 50% inhibition at 10 µM
Sequence of Adenosine receptor A2a (P29274 whole entry): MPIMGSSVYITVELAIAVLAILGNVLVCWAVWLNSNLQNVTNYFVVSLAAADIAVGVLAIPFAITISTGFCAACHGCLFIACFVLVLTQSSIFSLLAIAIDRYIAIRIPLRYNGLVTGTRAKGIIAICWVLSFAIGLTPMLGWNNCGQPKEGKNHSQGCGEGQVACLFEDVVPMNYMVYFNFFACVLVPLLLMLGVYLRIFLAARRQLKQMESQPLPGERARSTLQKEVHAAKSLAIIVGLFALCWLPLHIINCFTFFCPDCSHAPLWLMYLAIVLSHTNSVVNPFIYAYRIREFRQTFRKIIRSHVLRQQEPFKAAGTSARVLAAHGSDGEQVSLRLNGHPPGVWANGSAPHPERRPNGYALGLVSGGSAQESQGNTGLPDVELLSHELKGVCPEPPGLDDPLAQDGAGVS

CC(Cl)(Cl)Cl [TRICHLOROETHANE]
Not Active: IC50 [1] | Ki [1] | IC50 [2] | Ki [2] | IC50 (Leukotriene C4 synthase) | IC50 [3] | IC50 [4] | IC50 [5] | IC50 (Adenosine receptor A2a)

CN1C(=O)OC(C)(C)C1=O [TRIMETHADIONE]
Not Active: IC50 [1] | Ki [1] | IC50 [2] | Ki [2] | IC50 (Leukotriene C4 synthase) | IC50 [3] | IC50 [4] | IC50 [5] | IC50 (Adenosine receptor A2a)

LEAD(IV) ACETATE
Not Active: IC50 [1] | Ki [1] | IC50 [2] | Ki [2] | IC50 (Leukotriene C4 synthase) | Ki (Leukotriene C4 synthase) | IC50 [3] | Ki [3] | IC50 [4] | Ki [4] | IC50 [5] | Ki [5] | IC50 (Adenosine receptor A2a) | Ki (Adenosine receptor A2a)
